Data taken from a melting point compilation (Tetko et al.; mined from patent text by program, amines drawn as free bases though some values may be those of a salt).
Non-standard residues stand in square brackets, D forms with d. Residues, ends and D or L forms follow the SMILES beside them. *: point of attachment. Tic = O=C(O)[C@@H]1Cc2ccccc2CN1; Abu = CC[C@H](N)C(=O)O; NHBu = CCCCN*

SMILES | melting point
CC(C)C(=O)c1cnc(C(CC2CCCC2)c2ccc(S(C)(=O)=O)cc2)[nH]1 (stereo unspecified) | 171 to 172 °C
NC(=O)c1cc2cc(OC(F)(F)F)cc(NS(=O)(=O)c3cccs3)c2[nH]1 | > 300 °C
COC(=O)[C@H](Cc1ccc(OCC2CCCN(C(=O)OC(C)(C)C)C2)cc1)NC(=O)[C@@H]1CCCN1S(=O)(=O)c1ccc(C)cc1 (stereo partly specified) | 82 to 84 °C
CC(C)(C)NS(=O)(=O)c1cncc(Br)c1 | 110 °C
COCOc1ccc(-c2ncc3ncc(N4CCCCC4=O)cc3n2)cc1 | 202 to 204 °C
CC1(C)CC(=C(c2ccc(O)cc2)c2ccc(C#CCO)cc2)CC(C)(C)C1 | 141 to 142 °C
CCCOc1cc2c(=O)c3ccccc3sc2cc1Cl | 101 to 102 °C
Oc1ccc2c(c1O)OCC(c1cccc(F)c1)C2 (stereo unspecified) | 148 to 149 °C
CNC(=S)N1CCSC1c1ccccc1OCCN1CCC(c2ccccc2)CC1 (stereo unspecified) | 141 to 142 °C
OC1CSC(Oc2cccnc2-c2cncnc2)C(O)C1O (stereo unspecified) | 195 °C
N#Cc1cnc2cc3c(cc2c1Nc1ccc(F)c(Cl)c1)NCCO3 | 244 to 245 °C
C(=Cc1cc2cc3ccccc3cc2s1)c1ccccc1 | 305 to 307 °C
COC(=O)c1ccc2[nH]c(-c3ccc(OC)c4nc(C)ccc34)nc2c1 | 165 to 167 °C
CC1NC(=O)NN=C1c1ccc(S)cc1 (stereo unspecified) | 202 to 204 °C
CCOc1nn(Cc2ccc(OCc3cn4c(Cl)cccc4n3)cc2)cc1CCC(=O)O | 153 to 154 °C
CC12C=CC(=O)C=C1CCC1C3CC4OCOC4(C(=O)CO)C3(C)CC(O)C12F (stereo unspecified) | 262 °C
CC(C)NC(=O)N1CCC(O[N+](=O)[O-])CC1 | 93 to 95 °C
CC(C)(C)C(=O)C=Cc1cccnc1 | 68 to 70 °C
COC(=O)C(C)(C)Sc1cccc(OC(=O)Nc2ccc(C(F)(F)F)cc2)c1 | 66 to 67 °C
Nc1ccc(OCc2ccc(Cl)nc2)cc1F | 101 °C
CC(C)(C)[Si](Oc1ccc(C=O)cc1)(c1ccccc1)c1ccccc1 | 103 to 105 °C
Cc1ccc2c(-c3ccoc3)cc(=O)oc2c1 | 160 to 162 °C
O=C(NCCc1ccc(O)c(O)c1)C1CC1 | 174 to 176 °C
COC(=O)C(C(=O)OC)c1ccc(Br)cc1 | 77 to 79 °C
Cc1nnc(-c2ccc3occ(-c4cnn(Cc5ccccc5C(F)(F)F)c4)c3c2)o1 | 165 to 166 °C
CCc1cc(C(=O)OC(C)C)c2cc(C(C)C)cccc1-2 | 69 to 71 °C

SMILES | melting point
O=C(Nc1ccc(Cl)cc1)c1cc(Br)c2cccnc2c1O | 213 to 215 °C
CCC(c1ccc(Cl)nc1)N(Cc1ccc(C(=O)O)cc1)S(=O)(=O)c1ccc(Cl)cc1 (stereo unspecified) | 111 to 113 °C
CCCc1ccc(-n2ncc(C#N)c2N(C(C)=O)C(C)=O)c(Cl)c1 | 110 to 112 °C
CCN(CC)C(=O)c1ccc2cc(-c3csc(N(C)S(=O)(=O)c4ccccc4)n3)c(=O)[nH]c2c1 | 200 to 202 °C
COC(=O)c1ccc(CCn2ccn(C3CCc4ccccc4C3)c2=S)cc1 (stereo unspecified) | 159 to 161 °C
CCn1c(Oc2cccc(NS(C)(=O)=O)c2)nnc1[C@@H](C)NS(=O)(=O)c1ccc(Cl)c(Cl)c1 | 117 to 118 °C
CC(C)Cn1cnc2cnc3ccc(OCc4ccccc4)cc3c21 | 129 to 133 °C
Cc1oc(-c2ccccc2)nc1C(O)COc1ccc(CC2SC(=O)NC2=O)nc1 (stereo unspecified) | 55 to 72 °C
N=C(N)c1c[nH]c2ccc(CCNC(=O)c3ccc(-c4ccnc(N5CCCC5C(N)=O)n4)cc3)cc12 (stereo unspecified) | 139 to 141 °C
COc1ccc2c(ccc3cc(OC)c(OC)c(OC)c32)c1 | 142 to 144 °C
CCOC(=O)CCCCc1cn(-c2cccnc2)c2ccccc12 | 56 to 58 °C
CCOCc1nc2cnc3cc(Br)cnc3c2n1CC(C)(C)F | 127 to 128 °C
CCCc1nc2cccc(C(=S)OC)c2n1Cc1ccc(-c2ccccc2C#N)cc1 | 107 to 108 °C
Cc1nc(SCC(=O)c2cc(-c3ccc(C(F)(F)F)cc3)oc2C)sc1CC(=O)O | 140 to 143 °C
Cc1oc(-c2ccccc2)nc1COc1ccc(COc2cccnc2CO)cc1 | 118 to 119 °C
CCc1ncnc(O)c1I | 191 to 192 °C
CCc1cc(Cl)ccc1NC(C)=O | 117 to 122 °C
O=C1c2ccc(Cl)cc2CC1Sc1ccccc1 (stereo unspecified) | 89 °C
COc1ccc(N2CC(=O)NC(=O)N2)cc1C | 69 to 71 °C
Fc1cc(F)cc(CN2CCN(c3cc(-c4ccccc4)c(C(F)(F)F)nn3)CC2)c1 | 139 °C
OCC1OC(n2cnc3c(Cl)ncc(F)c32)C(O)C1O (stereo unspecified) | 187 to 189 °C
C[C@H](C#Cc1sc(Cc2ccc(F)cc2)cc1Cl)N(O)C(N)=O | 131 to 132 °C
COC(C)(CC(=O)Nc1cccc(OCc2ccccc2)c1)OC | 83 °C
O=C(CCNC(=O)OCc1ccccc1)NCCSC(=O)OCc1ccccc1 | 121 to 122 °C
COc1cc2c(=O)c(S(C)=O)cn(C)c2cc1Cl (stereo unspecified) | 263 to 265 °C
COc1ccc(CNC(=O)c2cn3c(=O)n(Cc4ccc(C(=O)O)cc4)c(=O)c(C)c3s2)cc1 | > 210 °C

SMILES | melting point
COC(=O)c1c(Cl)ccc(C(=O)O)c1Cl | 183 to 185 °C
COP(=O)(Cc1ccc([N+](=O)[O-])c2ccccc12)OC | 128 to 129 °C
O=C1c2ccccc2C(Nc2ccccn2)N1CCCN1CC=C(c2ccccc2)CC1 (stereo unspecified) | 153 °C
CCOC(=O)c1cn(-c2ncns2)c2cc(F)c(F)cc2c1=O | 149 to 152 °C
CCCCCCCNC(=O)N(C)c1cccc(-c2ccc(CCC(=O)O)cc2)c1 | 101 °C
CC1CC(O)=CC(=O)O1 (stereo unspecified) | 103 to 104 °C
Oc1ccc2c(-c3ccc(Cl)cc3)noc2c1 | 203 °C
COc1ccc(/C=C/C(=O)C2C(=O)CC(c3ccc(OC)cc3)C([N+](=O)[O-])C2c2cccs2)cc1 (stereo unspecified) | 160 to 162 °C
COc1ccc(-c2cc(=O)[nH]nc2C)cc1 | 255 to 256 °C
CCCCNC(=O)[C@@H]1Cc2ccccc2CN1C(=O)[C@@H](N)CC (H-[Abu]-[Tic]-NHBu) | 105 to 110 °C
CN(C)CCOCC(O)c1ccc2cc(OCc3ccccc3)ccc2c1 (stereo unspecified) | 100 °C
CCCCOc1ccc(-c2ccc([C@H]3CC[C@H](CCC)CC3)c(C#N)c2C#N)cc1 | 115 °C
Nc1c2c(nc3ccc(Br)cc13)CCC2 | 236 to 238 °C
COc1ccc(CN(C)CCCc2ccc(NC(=O)c3cccc4c(=O)c5cccc(F)c5[nH]c34)c(C)c2)cc1OC | 132 °C
CN(C)C1Cc2cccc3[nH]c(=S)n(c23)C1 (stereo unspecified) | 203 to 205 °C
CC(C)(C)OC(=O)N1CCN(c2ccc(S(=O)(=O)c3ccccc3)c([N+](=O)[O-])c2)CC1 | 190 to 191 °C
CC(C)C(=O)N[C@@H](CSC(=O)C(C)(C)C)C(=O)NCCSC(=O)C(C)(C)C | 106 to 108 °C
O=C(O)CN1C(=O)C(=C2CCCCC2)SC1=S | 196 to 201 °C
COC(=O)CNC(=O)c1cc2c(C(=O)CN(Cc3ccccc3)C(C)(C)C)ccc(OCc3ccccc3)c2[nH]1 | 152 °C
O=C(O)CCCc1cc2cc(Cl)ccc2n1S(=O)(=O)c1ccc(N2CCOCC2)nc1 | 78 to 82 °C
CCCc1nc2c(N)nc3cc(-c4cccc(CN)c4)ccc3c2s1 | 168 to 171 °C
CC(CCCCO)Oc1c(I)cc(I)cc1I (stereo unspecified) | 79 to 80 °C
CN1CCC(OC(c2cccc(SCCNc3c(N)c(=O)c3=O)c2)c2nc3ccccc3[nH]2)CC1 (stereo unspecified) | 161 °C
CC(CC(F)(F)CC(C)(C)O)C1CCC2C3CC=C4CC(O)CCC4(C)C3CCC12C (stereo unspecified) | 148 to 149 °C
CC(C)(C)OC(=O)N1CCN(c2ccc(N)cc2C#N)CC1 | 145 °C
O=C(Nc1ccccc1)Nc1nc(C=C2SC(=O)NC2=O)cs1 | > 300 °C

SMILES | melting point
CCOC(=O)C(=CNc1nnc(C(F)(F)F)s1)C(=O)c1cc(F)c(Cl)nc1Cl | 73 to 76 °C
COc1ncnc(Cl)c1[N+](=O)[O-] | 65 °C
COC(=O)c1cc(Cl)ncc1[N+](=O)[O-] | 60.5 to 64.1 °C
CC1(c2ccc([N+](=O)[O-])cc2)Cc2cc(OCC(=O)O)c(Cl)c(Cl)c2C1=O (stereo unspecified) | 202 to 205 °C
CC(C)C(=O)CNC(=O)c1ccc(Cl)cc1 | 118 to 119 °C
CCCCCCCCCCCC(=O)N(CCO)CCNCCO | 94 °C
CCCn1nc(CO)cc1OCc1ccc2ccccc2n1 | 98 to 99 °C
Cc1ccc(Cc2nc3cc(-c4ccc(-c5ccccc5)cc4)c(Cl)cc3[nH]2)cc1P(=O)(O)O | > 220 °C
COCOc1cc(C(C)(C)C)ccc1C(=O)O | 72 °C
CCOC(=O)c1cnc(Nc2ccc(OCC)cc2)[nH]c1=O | 263 to 265 °C
CCOC(=O)C1=Cc2cc(-c3ccc(C)cc3)ccc2OC1C (stereo unspecified) | 82 to 84 °C
COc1ccc2c(c1)C(CC(=O)O)CCO2 (stereo unspecified) | 80 to 83 °C
OC(c1nnn[nH]1)c1ccccc1Cl (racemic) | 130 to 132 °C
CCCCc1nc2c(N)nc3ccccc3c2n1CCCNC(=S)Nc1ccccc1 | 143 to 144 °C
O=C(O)c1cn(Cc2nccs2)c2cc(N3CCN(c4ccncc4)CC3)ccc2c1=O | 273 to 276 °C
c1ccc(C(OC2CCN(CCCCNc3ccc4ncnn4n3)CC2)c2ccccc2)cc1 | 102 to 104 °C
CC1=C(C(=O)OC(C)C)C(c2ccccc2F)n2nncc2N1 (stereo unspecified) | 137 to 139 °C
Oc1ccc2sc(-c3ccc(OCCN4CCCC4)cc3)c(Cc3ccc(OC4CCCCC4N4CCCCC4)cc3)c2c1 (stereo unspecified) | 103 to 106 °C
COc1cc(C(=O)O)ccc1Cc1cn(C)c2ccc(C(=O)NCC3CCCC3)cc12 | 237 to 239 °C
N#Cc1ccc(-c2ccc(OCCCCC(=O)NO)cc2)cc1 | 142 to 143 °C
Cn1c(C(F)(F)F)nc2c(OCc3ccccc3)cc(Br)cc21 | 141 to 142 °C
Cc1nc2ccccn2c(=O)c1CCN1CCc2oc3ccccc3c2C1 | 186 °C
CC1Cc2ccccc2C1=NO (stereo unspecified) | 82 to 91 °C
